According to publication PMC5442318, “Hundreds of dual-stage antimalarial molecules discovered by a functional gametocyte screen” (Nature Communications, 2017):
pIC50: −log10 of the molar value. Where two headings read alike, the source gives them in different places.

Experiments:
[1] = tested on: P. falciparum stage V female gametocytes; test: P. falciparum female gametocyte activation assay (Pf FGAA), 24 h or 48 h preincubation, Pfs25 expression readout; format: cell-based, Plasmodium falciparum NF54; conditions: P. falciparum female gametocytes, mean, read-out: Gametocytes mean Pf FGAA IC50
Procedure: P. falciparum NF54 (originally isolated from an imported malaria case in the Netherlands in the 1980s; BEI Resources, cat. no. MRA-1000) asexual-stage culture was performed as described by Trager and Jensen[37]. Cultures synchronized at the ring stage were used to start gametocyte cultures (day 0) at 1% parasitaemia and 4% haematocrit in 200 ml final volume using culture bottles (Nalgene 3110-42, Thermo Scientific). Complete culture medium (RPMI 1640 supplemented with 25 mM HEPES, 50 μg ml^−1 hypoxanthine, 2 g l^−1 NaHCO3 and 10% pooled human male type A+ serum) was totally replaced daily for 14 days without fresh erythrocyte addition. Human serum was obtained from Interstate Blood Bank, A^+ serotype; no aspirin 2 h before drawing and no antimalarials 2 weeks before drawing. To ensure a stable temperature at 37 °C, which is crucial for gametocyte production and maturation, pre-warmed medium and a slide warmer (XH-2001, Premiere) were used. Under these conditions, parasitaemia reaches a peak of asexual stages on days 4–5, and the first gametocytes are differentiated in culture on day 6. Sexual-stage development was monitored microscopically by Giemsa-stained thin blood smears at day 7 (mainly asexual stages and stages I to III gametocytes) and day 14 (stages IV and V gametocytes).
Cultures showing mainly stage V gametocytes were purified by differential sedimentation as previously reported. The gametocyte concentration was adjusted to plate 8,000 gametocytes per well (100 μl per well) in 384-well poly-D-lysine coated plates (781946, Greiner Bio-One) containing the compounds to test. […] Female gametocyte activation was then triggered by temperature drop and addition of xanthurenic acid (D120804, Sigma) as previously described. To detect female gametes, monoclonal anti-Pfs25 antibody[38] 4B7 (BEI Resources (formerly MR4), cat. no. MRA-315) conjugated to the Cy3 fluorochrome (GE Healthcare) was added to ookinete medium (RPMI 1640 supplemented with 25 mM HEPES, 50 μg ml^−1 hypoxanthine, 2 g l^−1 NaHCO3, 100 μM xanthurenic acid and 20% human serum) at a final concentration of 0.5 μg ml^−1. Activated cultures were then kept at 26 °C for 24 h protected from light, and image acquisition was performed in the Opera High-Content Screening System (PerkinElmer). Using × 10 air objective, five images per well were taken using 532 nm excitation. Images were analysed with a Columbus image data storage and analysis system (PerkinElmer) based on a script specifically designed for this assay that considers size, roundness and intensity of fluorescence of the female activated gametocytes.
Compounds were dissolved in 100% DMSO and dispensed in the 384-well plates using an Echo-CRS liquid handler. Compounds were tested in 2–3 independent experiments. […] Based on that, Z′ factor was calculated for each plate and only those ones with values higher than 0.4 were considered acceptable for data analysis.
Assay performance statistics, such as signal to background ratio, Z′ and robust 3 s.d. activity cut-off were calculated using templates in ActivityBase XE (IDBS, Guilford, Surrey, UK). Hit population analysis and visualization were conducted using Spotfire DecisionSite (Spotfire, Inc., Somerville, MA, USA). The pIC50 (−log IC50) values were obtained using the ActivityBase XE nonlinear regression function in the full curve analysis bundle.

[2] = tested on: P. falciparum stages IV–V gametocytes; test: Gametocytocidal ATP-depletion assay (gametocyte ATP bioluminescence); format: cell-based, Plasmodium falciparum
Procedure: In parallel, the set of confirmed hits from the Pf FGAA screen was cross-compared in the gametocyte ATP-depletion assay, at 2 μM single concentration (Supplementary Data 1). This assay monitors ATP levels as surrogate of gametocyte viability.
‘Viability' of mature gametocytes was determined using the gametocyte ATP bioluminiscence assay. Briefly, stages IV–V gametocyte cultures were double-purified by differential sedimentation followed by magnetic isolation. Then, parasites (50 μl per well containing 12,500 gametocytes) were added to compound pre-dispensed 384-well plates (781091, Greiner Bio-One) and incubated at 37 °C for 48 h (3% O2, 5% CO2 and 92% N2). BacTiter-Glo kit (G8231, Promega) was used to determine the ATP levels of ‘live' parasites according to the manufacturer's instructions. After reagent addition (50 μl per well), luminescence of the plates was measured using a microplate reader (HTS counter Victor, Wallac).

HepG2 cells = test: HepG2 cytotoxicity assay; format: cell-based; conditions: HepG2 cells; mean
Procedure: After incubation, plates and CellTiter-Glo Reagent (G7571, Promega) were equilibrated at room temperature for 30 min before proceeding to develop the luminescent signal. Using a Multidrop combi dispenser, 25 μl per well of the signal developer were added to the plates and after 10 min at room temperature for stabilization, plates were read on the ViewLux system (Perkin Elmer).

[3] = tested on: P. falciparum asexual blood stages; conditions: TCAMS asexual blood stage data; ref 1 (Gamo, F. J. et al., Nature 465, 305-310, 2010); read-out: Pf Asexual blood stages XC50; cited from earlier work

| SMILES | pIC50 [1] | Gametocytes mean ATP inhibition at 2µM [2] | HepG2 cells mean TOX50 (HepG2 cells) | pIC50 [3] | pIC50 ([1]; Plasmodium falciparum) | inhibition at 2 µM ([2]; Plasmodium falciparum, mean) |
| --- | --- | --- | --- | --- | --- | --- |
| OCCN1CCN(c2ccc(Nc3ccnc4cc5ccccc5cc34)cc2)CC1 [TCMDC-123915] | 5.48 | 2.56% | 5.43 µM | 7.40 |  |  |
| Cc1ccnc(NC(c2cccc(Cl)c2Cl)c2ccc3cccnc3c2O)c1 (stereo not drawn) [TCMDC-123997] | 5.72 | 90.58% | 45.69 µM | 6.00 |  |  |
| [O-][s+]1c(Cl)c(-c2ccc(Cl)cc2)c2ccc(Cl)cc21 (stereo not drawn) [TCMDC-124011] | 7.44 | 87.64% | 11.35 µM | 6.00 |  |  |
| Cc1cc(I)ccc1Nc1nc2nonc2nc1Nc1ccc(I)cc1C [TCMDC-124083] | 5.97 | 6.94% | 0.93 µM | 6.29 |  |  |
| FC(F)(F)c1cccc(Nc2nc3ccccc3nc2Nc2cccc(C(F)(F)F)c2)c1 [TCMDC-124162] | 5.62 | 20.50% | 17.68 µM | 6.85 |  |  |
| CC(C)C1=CC(=NOS(=O)(=O)c2ccccc2)C=C(C(C)C)C1=O [TCMDC-124172] | 6.06 | 65.50% | 21.70 µM | 6.15 |  |  |
| CCN1CCN(c2ccc(Nc3c4ccccc4nc4ccccc34)cc2)CC1 [TCMDC-124255] | 6.00 | 12.43% | 4.57 µM | 6.14 |  |  |
| Cl.c1ccc2c(NCCCCCCCCCNc3c4ccccc4nc4ccccc34)c3ccccc3nc2c1 [TCMDC-124286] | 5.74 | 51.90% | 4.90 µM | 6.52 |  |  |
| C=CCN(C(=O)c1ccc(Cl)c([N+](=O)[O-])c1)c1nc(-c2ccccc2)cs1 [TCMDC-124436] | 6.89 | 100.64% | >100 µM | 6.40 |  |  |
| CC(C)(C)Nc1cc(C2CC2)nc(-c2ccccn2)n1 [TCMDC-124453] | 7.00 | 81.87% | >100 µM | 6.17 |  |  |
| Cn1c(Sc2ncnc3sccc23)nc2ccccc21 [TCMDC-124514] | 5.90 | 17.03% | >100 µM | 6.72 |  |  |
| Cc1sc2ncnc(Sc3nnc(N)s3)c2c1C [TCMDC-124542] | 6.11 | 30.31% | 36.31 µM | 6.40 |  |  |
| COc1ccc(OC)c(-c2cccc(-c3cccc(NC(=O)c4ccc([N+](=O)[O-])o4)c3)n2)c1 [TCMDC-124799] | 6.02 | 25.78% | 3.63 µM | 6.43 |  |  |
| O=C(c1ccc([N+](=O)[O-])o1)N1CCC(Cc2ccc(C(F)(F)F)cc2)CC1 [TCMDC-124805] | 6.80 | 93.11% | 27.05 µM | 6.77 |  |  |
| Cc1sc2nc(CN3CCCC3)nc(-n3c(NCCO)nc4ccccc43)c2c1C [TCMDC-124811] | 5.15 | 42.91% | 25.73 µM | 5.91 |  |  |
| CCOc1ccc2nc3cc(NC(=O)c4ccco4)ccc3c(N)c2c1 [TCMDC-125004] | 5.34 | 91.77% | 25.15 µM | 6.10 |  |  |
| Cc1ccccc1OCC(O)CNC1CCC(NCC(O)COc2ccccc2C)CC1 (stereo not drawn) [TCMDC-125142] | 5.95 | 39.31% | 4.07 µM | 5.92 |  |  |
| CC(Nc1cc(-c2ccccn2)nc(-c2ccccn2)n1)c1ccccc1 (stereo not drawn) [TCMDC-125420] | 6.68 | 86.62% | 6.18 µM | 6.35 |  |  |
| c1ccc(CNc2cc(-c3ccccn3)nc(-c3ccccn3)n2)cc1 [TCMDC-125421] | 6.49 | 76.15% | 13.04 µM | 6.52 |  |  |
| Cc1c(Cl)cccc1N=C(S)NN=Cc1ccccn1 [TCMDC-125487] | 7.55 | 74.71% | >100 µM | 6.22 |  |  |
| Fc1ccc(NC(S)=NN=Cc2ccccn2)cc1 [TCMDC-125521] | 7.57 | 85.73% | >100 µM | 6.11 |  |  |
| SC(=Nc1ccc(Cl)c(Cl)c1)NN=Cc1ccccn1 [TCMDC-125522] | 7.10 | 64.79% | 3.47 µM | 6.11 |  |  |
| CC[C@H]1CN2CCc3cc(OC)c(OC)cc3[C@@H]2C[C@@H]1C[C@H]1NCCc2cc(OC)c(OC)cc21 [TCMDC-125531] |  |  | 9.77 µM | 6.68 | 5.56 | 56% |
| c1ccc2sc(Sc3ncnc4sccc34)nc2c1 [TCMDC-125539] | 6.85 | 69.68% | >100 µM | 6.14 |  |  |
